Measured values reported in patent US6362369B1, “Phthalic acid diamide derivatives fluorine-containing aniline compounds as starting material, agricultural and horticultural insecticides, and a method for application of the insecticides” (Nihon Nohyaku Co., Ltd., priority 1997, dated 2002).

Assays:
Type in all cases: in vivo
[1] = test system: rice leafroller (Cnaphalocrocis medinalis); assay: Insecticidal effect on rice leafroller (Test Example 3); conditions: 500 ppm, 25° C., humidity 70%; for Insecticidal effect (Test Example 3), judged from mortality / Insecticidal effect on rice leafroller (Test Example 3), judged grade: rice lamina dip; for Insecticidal effect (Test Example 3), judged from mortality: 4 days after inoculation; for Insecticidal effect, Test Example 3: rice lamina immersed; for Insecticidal effect, Test Example 3 / Insecticidal effect on rice leafroller (Test Example 3), judged grade: four days after inoculation; for Insecticidal effect on rice leafroller (Test Example 3), judged grade: third-instar larvae
Outline: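 Groups of 10 third-instar larvae, in triplicate, are placed on air-dried lamina resting on wet filter paper. Incubation runs four days at 25° C with 70% humidity before survivors and dead are tallied.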

[2] = test system: diamondback moth (Plutella xylostella); assay: Insecticidal effect on diamondback moth (Test Example 1); conditions: for Insecticidal effect (Test Example 1), judged from mortality / Insecticidal effect, Test Example 1: diamondback moth; for Insecticidal effect (Test Example 1), judged from mortality: judged by the criterion of Test Example 1; for Insecticidal effect on diamondback moth (Test Example 1), judged grade: mortality judged according to the criterion shown in Test Example 1
Outline: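 Eggs laid by adult moths on Chinese cabbage seedlings, which were immersed in test solution, air-dried and kept at 25 °C. Hatched insects counted 6 days after immersion and mortality calculated, with effect graded by criterion; triplicate groups of 10 insects.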

[3] = test system: common cutworm (Spodoptera Litura); assay: Insecticidal effect on common cutworm (Test Example 2); conditions: 500 ppm, 25° C.; for Insecticidal effect (Test Example 2), judged from mortality / Insecticidal effect on common cutworm (Test Example 2), judged grade: cabbage leaf dip; for Insecticidal effect (Test Example 2), judged from mortality: 8 days after inoculation; for Insecticidal effect, Test Example 2: cabbage leaf immersed; for Insecticidal effect, Test Example 2 / Insecticidal effect on common cutworm (Test Example 2), judged grade: eight days after inoculation; for Insecticidal effect on common cutworm (Test Example 2), judged grade: second-instar larvae
Outline: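 Mortality was scored 8 days post-inoculation, using three groups of 10 second-instar larvae kept at 25 °C in closed 9 cm dishes on air-dried treated material. The insecticidal effect was graded from calculated mortality by a set criterion.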

[4] = third-instar larvae of rice leafroller
[5] = second-instar larvae of common cutworm
[6] = judged by the mortality criterion of Test Example 1
[7] = rice leafroller third-instar larvae
[8] = mortality judged by criterion of Test Example 1
[9] = common cutworm second-instar larvae

Structure (SMILES)	Insecticidal effect (Test Example 3), judged from mortality [1, 4]	Insecticidal effect (Test Example 1), judged from mortality [2]	Insecticidal effect (Test Example 2), judged from mortality [3, 5]	Insecticidal effect, Test Example 3 [1, 4]	Insecticidal effect, Test Example 1 [2, 6]	Insecticidal effect, Test Example 2 [3, 5]	also measured
Cc1cc(C(F)(F)C(F)(F)F)ccc1NC(=O)c1cccc(I)c1C(=O)N[C@H](C)CO [compound 1481]	A (100)	A (100)	A (100)	–	–	–	–
Cc1cc(Cl)ccc1NC(=O)c1cccc(Cl)c1C(=O)NC(C)C [compound 119]	–	–	–	A (100)	A (100)	A (100)	–
Cc1cc(OCC(F)(F)C(F)F)ccc1NC(=O)c1c(Br)cccc1C(=O)NC(C)C [compound 319]	–	–	–	B (99-90)	A (100)	B (99-90)	–
Cc1cc(SC(F)(F)C(F)(F)F)ccc1NC(=O)c1cccc(Cl)c1C(=O)NC(C)C [compound 907]	–	–	–	–	–	–	Insecticidal effect on rice leafroller (Test Example 3), judged grade [1]: A (100); Insecticidal effect on diamondback moth (Test Example 1), judged grade [2]: A (100); Insecticidal effect on common cutworm (Test Example 2), judged grade [3]: A (100)
Cc1cc(F)ccc1NC(=O)c1cccc(I)c1C(=O)NC(C)C [compound 368]	–	–	–	A (100)	A (100)	A (100)	–
Cc1cc(C(F)(F)C(F)(F)F)ccc1NC(=O)c1cccc(I)c1C(=O)N[C@@H](C)CO [compound 1482]	A (100)	A (100)	A (100)	–	–	–	–
Cc1cc(OC(F)(F)F)ccc1NC(=O)c1cccc(Br)c1C(=O)NC(C)C [compound 289]	–	–	–	A (100)	A (100)	A (100)	–
CC(C)NC(=O)c1c(Cl)cccc1C(=O)Nc1ccc(Oc2ccc(C(F)(F)F)cc2Cl)cc1F [compound 903]	–	–	–	–	–	–	Insecticidal effect on rice leafroller (Test Example 3), judged grade [1]: A (100); Insecticidal effect on diamondback moth (Test Example 1), judged grade [2]: A (100); Insecticidal effect on common cutworm (Test Example 2), judged grade [3]: A (100)
CC(C)(C)NC(=O)c1c(I)cccc1C(=O)Nc1ccc2oc(C(F)(F)C(F)(F)C(F)(F)F)nc2c1 [compound 1639]	A (100)	A (100)	A (100)	–	–	–	–
Cc1cc(OC(F)(F)C(F)F)ccc1NC(=O)c1cccc(C(F)(F)F)c1C(=O)NC(C)C [compound 1206]	–	–	–	–	–	–	Insecticidal effect, Test Example 3 [1, 7]: A (100); Insecticidal effect, Test Example 1 [2, 8]: A (100); Insecticidal effect, Test Example 2 [3, 9]: A (100)
CCC(C)(C)NC(=O)c1c(I)cccc1C(=O)Nc1ccc(C(F)(F)C(F)(F)F)cc1C [compound 1565]	A (100)	A (100)	A (100)	–	–	–	–
CCNC(=O)c1c(Cl)cccc1C(=O)Nc1ccc(C(F)(F)C(F)(F)F)cc1Cl [compound 1489]	A (100)	A (100)	A (100)	–	–	–	–
CC(C)NC(=O)c1c(Cl)cccc1C(=O)Nc1ccc(SC(F)(F)C(F)(F)Br)cc1 [compound 103]	–	–	–	A (100)	A (100)	C (89-80)	–
Cc1cc(C(F)(F)C(F)(F)F)ccc1NC(=O)c1c(I)cccc1C(=O)NC(C)C [compound 437]	–	–	–	A (100)	A (100)	C (89-80)	–
CC(C)NC(=O)c1cccc(I)c1C(=O)Nc1ccc(SC(F)F)cc1 [compound 421]	–	–	–	A (100)	A (100)	B (99-90)	–
CCc1cc(C(F)(F)C(F)(F)F)ccc1NC(=O)c1cccc(Cl)c1C(=O)NC(C)C [compound 1495]	A (100)	A (100)	A (100)	–	–	–	–

Structure (SMILES)	Insecticidal effect (Test Example 3), judged from mortality [1, 4]	Insecticidal effect (Test Example 1), judged from mortality [2]	Insecticidal effect (Test Example 2), judged from mortality [3, 5]	Insecticidal effect, Test Example 3 [1, 4]	Insecticidal effect, Test Example 1 [2, 6]	Insecticidal effect, Test Example 2 [3, 5]	also measured
Cc1c(NC(=O)c2cccc([N+](=O)[O-])c2C(=O)NC(C)C)cccc1OC(F)F [compound 695]	–	–	–	–	–	–	Insecticidal effect on rice leafroller (Test Example 3), judged grade [1]: A (100); Insecticidal effect on diamondback moth (Test Example 1), judged grade [2]: A (100); Insecticidal effect on common cutworm (Test Example 2), judged grade [3]: A (100)
CC(C)NC(=O)c1c(Cl)cccc1C(=O)Nc1ccc(OC(F)(F)F)cc1Cl [compound 135]	–	–	–	A (100)	A (100)	A (100)	–
Cc1cc(C(F)(F)C(F)(F)F)ccc1NC(=O)c1cccc(Cl)c1C(=O)NC(C)(C)c1cccc(Cl)c1 [compound 1485]	A (100)	A (100)	A (100)	–	–	–	–
Cc1cc(OC(F)(F)C(F)C(F)(F)F)ccc1NC(=O)c1c(Br)cccc1C(=O)NC(C)C (stereo not drawn) [compound 328]	–	–	–	A (100)	A (100)	A (100)	–
CCC(C)NC(=O)c1c(I)cccc1C(=O)Nc1ccc(OC(F)F)cc1C (stereo not drawn) [compound 1454]	A (100)	A (100)	A (100)	–	–	–	–
CC(C)NC(=O)c1c(I)cccc1C(=O)Nc1ccc(OC(F)F)c(OC(F)F)c1 [compound 385]	–	–	–	A (100)	A (100)	B (99-90)	–
CC(C)NC(=O)c1ccccc1C(=O)Nc1ccc(OC(F)(F)F)cc1 [compound 29]	–	–	–	A (100)	A (100)	B (99-90)	–
Cc1cc(C(F)(F)C(F)(F)C(F)(F)C(F)(F)F)ccc1NC(=O)c1cccc(F)c1C(=O)NC(C)C [compound 498]	–	–	–	–	–	–	Insecticidal effect on rice leafroller (Test Example 3), judged grade [1]: A (100); Insecticidal effect on diamondback moth (Test Example 1), judged grade [2]: A (100); Insecticidal effect on common cutworm (Test Example 2), judged grade [3]: A (100)
Cc1cc(C(F)(C(F)(F)F)C(F)(F)F)ccc1NC(=O)c1cccc(I)c1C(=O)NC(C)c1ccccn1 (stereo not drawn) [compound 1773]	A (100)	A (100)	A (100)	–	–	–	–
Cc1cc(OC(F)(F)C(F)F)ccc1NC(=O)c1ccccc1C(=O)NC(C)(C)C [compound 1060]	–	–	–	–	–	–	Insecticidal effect, Test Example 3 [1, 7]: A (100); Insecticidal effect, Test Example 1 [2, 8]: A (100); Insecticidal effect, Test Example 2 [3, 9]: A (100)
CC(C)NC(=O)c1c(F)cccc1C(=O)Nc1ccc(OC(F)(F)F)cc1Cl [compound 508]	–	–	–	–	–	–	Insecticidal effect on rice leafroller (Test Example 3), judged grade [1]: A (100); Insecticidal effect on diamondback moth (Test Example 1), judged grade [2]: A (100); Insecticidal effect on common cutworm (Test Example 2), judged grade [3]: B (99-90)
Cc1cc(OC(F)(F)C(Cl)(Cl)Cl)ccc1NC(=O)c1cccc(Cl)c1C(=O)NC(C)C [compound 129]	–	–	–	A (100)	A (100)	A (100)	–
CC(C)NC(=O)c1c(C(=O)Nc2cccc(C(F)(F)F)c2)cccc1[N+](=O)[O-] [compound 607]	–	–	–	–	–	–	Insecticidal effect on rice leafroller (Test Example 3), judged grade [1]: A (100); Insecticidal effect on diamondback moth (Test Example 1), judged grade [2]: A (100); Insecticidal effect on common cutworm (Test Example 2), judged grade [3]: A (100)
CCN(CC)C(=O)c1c(C(=O)Nc2ccc(C(F)(F)C(F)(F)F)cc2C)cccc1[N+](=O)[O-] [compound 1550]	A (100)	A (100)	A (100)	–	–	–	–
COc1ccc(NC(=O)c2c(Cl)cccc2C(=O)NC(C)C)c(C)c1C [compound 219]	–	–	–	A (100)	A (100)	D (79-50)	–
